According to US9522914B2, “Azole derivative” (TAISHO PHARMACEUTICAL CO., LTD, priority 2011, dated 2016):

Molecular target: Human V1b receptor (Homo sapiens (Human), UniProt P47901)
Assay: Binding Test for V1b Receptor ([3H]AVP, crude membrane preparation of 293FT cells)
Details: inhibition of [3H]AVP binding (0.4 to 1 nmol/L), room temperature, 60 minutes
In short: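 Crude membranes from 293FT cells transiently expressing human V1b, incubated with [3H]AVP (0.4 to 1 nmol/L) and compound (0.01 nmol/L–1 μmol/L final) in Tris pH 7.4 with MgCl2 and 0.1% BSA, 60 min at room temperature. Bound label collected by filtration. Nonspecific binding defined with unlabeled AVP; IC50 from dose-response curve.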

Human V1b receptor, sequence (P47901 whole entry): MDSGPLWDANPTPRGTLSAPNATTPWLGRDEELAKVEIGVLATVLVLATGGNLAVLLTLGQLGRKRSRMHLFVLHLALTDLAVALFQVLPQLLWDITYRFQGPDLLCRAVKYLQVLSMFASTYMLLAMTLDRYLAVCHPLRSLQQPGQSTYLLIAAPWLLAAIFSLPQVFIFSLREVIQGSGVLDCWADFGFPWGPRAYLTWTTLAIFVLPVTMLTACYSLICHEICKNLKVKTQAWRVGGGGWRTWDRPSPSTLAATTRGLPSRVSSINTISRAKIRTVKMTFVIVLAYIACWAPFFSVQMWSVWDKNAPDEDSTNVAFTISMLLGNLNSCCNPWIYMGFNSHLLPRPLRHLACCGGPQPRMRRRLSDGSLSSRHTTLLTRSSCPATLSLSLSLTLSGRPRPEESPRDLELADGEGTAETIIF

Row | SMILES | IC50
1 | CC(C)NC(=O)Cc1nn(-c2ccc(CC(C)N3CCOCC3)cn2)c(=O)n1-c1cccc(Cl)c1 [Example D-19, 2-[4-(3-chlorophenyl)-1-{5-[2-(morpholin-4-yl)propyl]pyridin-2-yl}-5-oxo-4,5-dihydro-1H-1,2,4-triazol-3-yl]-N-(propan-2-yl)acetamide] | 10 to 100 nM
2 | COc1cccc(-n2c(CC(=O)NC(C)C)nn(-c3ccc(CCN4C5CCC4COC5)c(OC)c3)c2=O)c1 [Example D-42, 2-[1-{3-methoxy-4-[2-(3-oxa-8-azabicyclo[3.2.1]oct-8-yl)ethyl]phenyl}-4-(3-methoxyphenyl)-5-oxo-4,5-dihydro-1H-1,2,4-triazol-3-yl]-N-(propan-2-yl)acetamide] | 7.9 nM
3 | COc1cc(-c2nc(-c3ccc(CCN4CCC(C#N)CC4)cc3)cn2CC(=O)NC(C)C)ccc1F [Example A-14, 2-[4-{4-[2-(4-cyanopiperidin-1-yl)ethyl]phenyl}-2-(4-fluoro-3-methoxyphenyl)-1H-imidazol-1-yl]-N-(propan-2-yl)acetamide] | 100 to 1000 nM
4 | COc1cccc(-c2nc(-c3ccc(CCN4CCOCC4C)cc3)nn2CC(=O)NC(C)C)c1 (stereo not drawn) [Example B-30, 2-[5-(3-methoxyphenyl)-3-{4-[2-(3-methylmorpholin-4-yl)ethyl]phenyl}-1H-1,2,4-triazol-1-yl]-N-(propan-2-yl)acetamide] | 10 to 100 nM
5 | CC(C)NC(=O)Cc1nc(-c2cccc(CCN3CCCCC3)c2)sc1-c1cccc(Cl)c1 [Example C-16, 2-[5-(3-chlorophenyl)-2-{3-[2-(piperidin-1-yl)ethyl]phenyl}-1,3-thiazol-4-yl]-N-(propan-2-yl)acetamide] | 100 to 1000 nM
6 | COc1cncc(-c2nc(-c3ccc(CCN4CCOCC4)cc3)cn2CC(=O)NC(C)C)c1 [Example A-40, 2-[2-(5-methoxypyridin-3-yl)-4-{4-[2-(morpholin-4-yl)ethyl]phenyl}-1H-imidazol-1-yl]-N-(propan-2-yl)acetamide] | 10 to 100 nM
7 | COc1cccc(-c2nc(-c3ccc(CCN4CCC(C(F)(F)F)CC4)cc3)nn2CC(=O)NC(C)C)c1 [Example B-38, 2-[5-(3-methoxyphenyl)-3-(4-{2-[4-(trifluoromethyl)piperidin-1-yl]ethyl}phenyl)-1H-1,2,4-triazol-1-yl]-N-(propan-2-yl)acetamide] | 10 to 100 nM
8 | CC(C)NC(=O)Cc1nn(-c2ccc(CCN3CCOCC3)cc2)c(=O)n1-c1ccc(F)c(Cl)c1 [Example D-26, 2-[4-(3-chloro-4-fluorophenyl)-1-{4-[2-(morpholin-4-yl)ethyl]phenyl}-5-oxo-4,5-dihydro-1H-1,2,4-triazol-3-yl]-N-(propan-2-yl)acetamide] | 4.4 nM
9 | Cc1c(-c2cccc(Cl)c2)n(CC(=O)NC(C)C)c(=O)n1-c1ccc(CCN2CCOCC2)cc1 [Example C-20, 2-[5-(3-chlorophenyl)-4-methyl-3-{4-[2-(morpholin-4-yl)ethyl]phenyl}-2-oxo-2,3-dihydro-1H-imidazol-1-yl]-N-(propan-2-yl)acetamide] | 10 to 100 nM
10 | CC(C)NC(=O)Cc1nn(-c2ccc(CCN3CCC4CCCCC4C3)cc2)c(=O)n1-c1cccc(Cl)c1 [Example D-51, 2-[4-(3-chlorophenyl)-1-{4-[2-(octahydroisoquinolin-2(1H)-yl)ethyl]phenyl}-5-oxo-4,5-dihydro-1H-1,2,4-triazol-3-yl]-N-(propan-2-yl)acetamide] | 100 to 1000 nM
11 | CC(C)NC(=O)Cn1nc(-c2ccc(CCN3C4CCC3COC4)cc2)nc1-c1cccc(Cl)c1 [Example B-01, 2-[5-(3-chlorophenyl)-3-{4-[2-(3-oxa-8-azabicyclo[3.2.1]oct-8-yl)ethyl]phenyl}-1H-1,2,4-triazol-1-yl]-N-(propan-2-yl)acetamide] | 1.4 nM
12 | COc1cccc(-c2nc(-c3ccc(CCN4C[C@@H](C)O[C@@H](C)C4)cc3)nn2CC(=O)NC(C)C)c1 [Example B-29, 2-[3-(4-{2-[(2R,6S)-2,6-dimethylmorpholin-4-yl]ethyl}phenyl)-5-(3-methoxyphenyl)-1H-1,2,4-triazol-1-yl]-N-(propan-2-yl)acetamide] | 10 to 100 nM
13 | CCC1COCCN1CCc1ccc(-c2nc(-c3cccc(OC)c3)n(CC(=O)NC(C)C)n2)cc1 (stereo not drawn) [Example B-31, 2-[3-{4-[2-(3-ethylmorpholin-4-yl)ethyl]phenyl}-5-(3-methoxyphenyl)-1H-1,2,4-triazol-1-yl]-N-(propan-2-yl)acetamide] | 10 to 100 nM
14 | COc1cc(-c2nc(-c3ccc(CCN4CC(C)OC(C)C4)cc3)cn2CC(=O)NC(C)C)ccc1F (stereo not drawn) [Example A-20, 2-[4-{4-[2-(2,6-dimethylmorpholin-4-yl)ethyl]phenyl}-2-(4-fluoro-3-methoxyphenyl)-1H-imidazol-1-yl]-N-(propan-2-yl)acetamide] | 12 nM
15 | CC(C)(C)NC(=O)Cc1nn(-c2ccc(CCN3CCOCC3)cn2)c(=O)n1-c1ccc(F)c(Cl)c1 [Example D-32, N-tert-butyl-2-[4-(3-chloro-4-fluorophenyl)-1-{5-[2-(morpholin-4-yl)ethyl]pyridin-2-yl}-5-oxo-4,5-dihydro-1H-1,2,4-triazol-3-yl]acetamide] | 17 nM
16 | CC(C)NC(=O)Cn1nc(-c2ccc(CCN3CCOCC3)cc2)cc1-c1cccc(Cl)c1 [Example C-07, 2-[5-(3-chlorophenyl)-3-{4-[2-(morpholin-4-yl)ethyl]phenyl}-1H-pyrazol-1-yl]-N-(propan-2-yl)acetamide] | 7.1 nM
17 | CC(C)NC(=O)Cc1nc(-c2ccc(CCN3CCCCC3)cc2)oc1-c1cccc(Cl)c1 [Example C-08, 2-[5-(3-chlorophenyl)-2-{4-[2-(piperidin-1-yl)ethyl]phenyl}-1,3-oxazol-4-yl]-N-(propan-2-yl)acetamide] | 10 to 100 nM
18 | COc1cccc(-c2nc(-c3ccc(CCN4CCOCC4)cc3F)nn2CC(=O)NC(C)C)c1 [Example B-18, 2-[3-{2-fluoro-4-[2-(morpholin-4-yl)ethyl]phenyl}-5-(3-methoxyphenyl)-1H-1,2,4-triazol-1-yl]-N-(propan-2-yl)acetamide] | 7.2 nM
19 | COc1cccc(-c2nc(-c3ccc(CCN4C(C)COCC4C)cc3)nn2CC(=O)NC(C)C)c1 (stereo not drawn) [Example B-41, 2-[3-{4-[2-(3,5-dimethylmorpholin-4-yl)ethyl]phenyl}-5-(3-methoxyphenyl)-1H-1,2,4-triazol-1-yl]-N-(propan-2-yl)acetamide] | 10 to 100 nM
20 | CC(C)(C)NC(=O)Cc1nn(-c2ccc(CCN3CCOCC3)cc2)c(=O)n1-c1ccc(F)c(Cl)c1 [Example D-30, N-tert-butyl-2-[4-(3-chloro-4-fluorophenyl)-1-{4-[2-(morpholin-4-yl)ethyl]phenyl}-5-oxo-4,5-dihydro-1H-1,2,4-triazol-3-yl]acetamide] | 2.8 nM
21 | CC(C)NC(=O)Cc1cn(-c2ccc(CCN3CCOCC3)cc2)nc1-c1cccc(Cl)c1 [Example C-03, 2-[3-(3-chlorophenyl)-1-{4-[2-(morpholin-4-yl)ethyl]phenyl}-1H-pyrazol-4-yl]-N-(propan-2-yl)acetamide] | 8.6 nM
22 | CC(C)NC(=O)Cn1nc(-c2ccc(CCN3CCCCC3)cc2)cc1-c1cccc(Cl)c1 [Example C-06, 2-[5-(3-chlorophenyl)-3-{4-[2-(piperidin-1-yl)ethyl]phenyl}-1H-pyrazol-1-yl]-N-(propan-2-yl)acetamide] | 17 nM
23 | CC(C)NC(=O)Cc1nn(-c2ccc(CCN3C4CCC3COC4)cn2)c(=O)n1-c1ccc(F)c(Cl)c1 [Example D-29, 2-[4-(3-chloro-4-fluorophenyl)-1-{5-[2-(3-oxa-8-azabicyclo[3.2.1]oct-8-yl)ethyl]pyridin-2-yl}-5-oxo-4,5-dihydro-1H-1,2,4-triazol-3-yl]-N-(propan-2-yl)acetamide] | 10 to 100 nM
24 | CC(C)NC(=O)Cc1nn(-c2ccc(CCN3CCC(C(F)(F)F)CC3)cc2)c(=O)n1-c1cccc(Cl)c1 [Example D-59, 2-[4-(3-chlorophenyl)-5-oxo-1-(4-{2-[4-(trifluoromethyl)piperidin-1-yl]ethyl}phenyl)-4,5-dihydro-1H-1,2,4-triazol-3-yl]-N-(propan-2-yl)acetamide] | 100 to 1000 nM
25 | COc1cccc(-c2nc(-c3ccc(CCN4CC5(CCOCC5)C4)cc3)nn2CC(=O)NC(C)C)c1 [Example B-37, 2-[5-(3-methoxyphenyl)-3-{4-[2-(7-oxa-2-azaspiro[3.5]non-2-yl)ethyl]phenyl}-1H-1,2,4-triazol-1-yl]-N-(propan-2-yl)acetamide] | < 10 nM
26 | CC(C)NC(=O)Cc1nn(-c2ccc(CCN3C4CCC3COC4)cc2)c(=O)n1-c1cccc(Cl)c1 [Example D-03, 2-[4-(3-chlorophenyl)-1-{4-[2-(3-oxa-8-azabicyclo[3.2.1]oct-8-yl)ethyl]phenyl}-5-oxo-4,5-dihydro-1H-1,2,4-triazol-3-yl]-N-(propan-2-yl)acetamide] | 14 nM
27 | CC(C)NC(=O)Cc1nn(-c2ccc(CCN3C4CCC3COC4)cc2F)c(=O)n1-c1cccc(Cl)c1 [Example D-24, 2-[4-(3-chlorophenyl)-1-{2-fluoro-4-[2-(3-oxa-8-azabicyclo[3.2.1]oct-8-yl)ethyl]phenyl}-5-oxo-4,5-dihydro-1H-1,2,4-triazol-3-yl]-N-(propan-2-yl)acetamide] | 10 to 100 nM
28 | CC(C)NC(=O)Cc1nn(-c2ccc(CCN3CCOCC3)cc2)c(=O)n1-c1cccc(C(F)(F)F)c1 [Example D-35, 2-(1-{4-[2-(morpholin-4-yl)ethyl]phenyl}-5-oxo-4-[3-(trifluoromethyl)phenyl]-4,5-dihydro-1H-1,2,4-triazol-3-yl)-N-(propan-2-yl)acetamide] | 18 nM
29 | COc1cccc(-c2nc(-c3ccc(CCN4CC=CCC4)cc3)nn2CC(=O)NC(C)C)c1 [Example B-22, 2-[3-{4-[2-(3,6-dihydropyridin-1(2H)-yl)ethyl]phenyl}-5-(3-methoxyphenyl)-1H-1,2,4-triazol-1-yl]-N-(propan-2-yl)acetamide] | 10 to 100 nM
30 | COc1cccc(-n2c(CC(=O)NC(C)(C)C)nn(-c3ccc(CCN4C5CCC4COC5)cn3)c2=O)c1 [Example D-09, N-tert-butyl-2-[4-(3-methoxyphenyl)-1-{5-[2-(3-oxa-8-azabicyclo[3.2.1]oct-8-yl)ethyl]pyridin-2-yl}-5-oxo-4,5-dihydro-1H-1,2,4-triazol-3-yl]acetamide] | 10 to 100 nM
